Source: US9340577B2, “HLA binding motifs and peptides and their uses” (priority 1992, dated 2016)
Read-outs that look alike come from different tables or passages of the source. No end group written: not given here.

Key:
Experiment in all cases: biochemical
[1] = target: DRB1*0802 (Homo sapiens, UniProt P01903+P01911, A100R/A103L/A169T/F76Y/H45Y/I96F/K41T/L162R/M171V/P40S/Q125H/Q178H/Q39Y/Q99D/R218S/R42G/S66Y/V115G/W38E); type: binding
[2] = target: DRB1*0301 (Homo sapiens, UniProt P01903+P01911, A100K/A102G/A103R/A169T/F55Y/I96L/K41T/L162R/M171V/P40S/Q125H/Q178H/Q39Y/R42S/S66N/T106N/T262R/W38E/Y61H); type: binding
[3] = target: DR7 (DRB1*0701) (Homo sapiens, UniProt P01903+P01911, A100R/A102G/A103Q/D57E/D86V/E43K/F76Y/K127E/L162R/M171V/P40G/Q125H/Q99D/R33Q/R42Y/R54Q/S133A/S66F/T210M/V115G/Y107V/Y59L/Y89S); type: binding
[4] = target: DRB1*1501 (Homo sapiens, UniProt P01903+P01911); type: binding
[5] = target: DRB1*1302 (Homo sapiens, UniProt P01903+P01911, A100E/A169T/K41T/L162R/M171V/P40S/Q125H/Q178H/Q39Y/Q99D/R42S/S66N/T262R/V115G/W38E/Y61H); type: binding
[6] = target: DRB1*1201 (Homo sapiens, UniProt P01903+P01911, A100R/A169T/D57E/D86V/F55L/H45Y/K41T/L162R/M171V/P40S/Q125H/Q178H/Q39Y/Q99D/R42G/S66L/T262R/V114A/V67L/W38E/Y59H/Y61H/Y89S); type: binding
[7] = target: DRB4*0101 (Homo sapiens, UniProt P01903+P13762, G164S); type: binding
[8] = target: DR1 (DRB1*0101) (Homo sapiens, UniProt P01903+P01911, A100R/D57E/F55L/F60I/F76Y/I96L/L162R/M171V/P40L/Q125E/R42F/V115G/Y59C); type: binding
[9] = target: DRB1*1101 (Homo sapiens, UniProt P01903+P01911, A100R/A169T/A87E/I96F/K41T/L162R/M171V/P40S/Q125H/Q178H/Q39Y/Q99D/R42S/S66Y/T262R/V115G/W38E)
[10] = target: DRB1*0901 (Homo sapiens, UniProt P01903+P01911, A100R/A103E/D57H/D86V/F55Y/F60I/F76Y/I96F/K127E/L162R/M171V/P40D/Q125H/Q99R/R33Q/R42F/S133A/S66N/T210M/V115G/W38K/Y107V/Y59G/Y89S); type: binding
[11] = target: DR4w4 (DRB1*0401) (Homo sapiens, UniProt P01903+P01911, A100K/A169T/F76Y/I96L/K127E/L162R/M171V/N62H/P40V/Q125Y/R42H/S133A/S149N/S66Y/V115G/V209L/W38E); type: binding
[12] = target: DRB5*0101 (Homo sapiens, UniProt P01903+Q30154)
[13] = target: DRB1*0405 (Homo sapiens, UniProt P01903+P01911, A100R/A169T/D86S/F76Y/I96L/K127E/L162R/M171V/N62H/P40V/Q125Y/R42H/S133A/S149N/S66Y/V115G/V209L/W38E); type: binding

DRB1*1101, sequence (P01903 26-254 limits assumed, other chains not shown): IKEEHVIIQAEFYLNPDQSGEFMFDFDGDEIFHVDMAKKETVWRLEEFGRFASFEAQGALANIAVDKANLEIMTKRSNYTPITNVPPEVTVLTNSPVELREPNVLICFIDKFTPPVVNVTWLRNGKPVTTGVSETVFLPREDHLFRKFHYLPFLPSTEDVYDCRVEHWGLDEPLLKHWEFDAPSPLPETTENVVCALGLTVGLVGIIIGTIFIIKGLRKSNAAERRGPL
DRB1*0301, sequence (P01903 26-254 limits assumed, other chains not shown): as above
DRB1*1302, sequence (P01903 26-254 limits assumed, other chains not shown): as above

Sequence	IC50 [1]	IC50 [2]	IC50 [3]	IC50 [4]	IC50 [5]	IC50 [6]	IC50 [7]	IC50 [8]	IC50 ([9]; Binding affinity DRB1 *1101)	IC50 [10]	IC50 [11]	IC50 ([12]; Binding affinity DRB5 *0101)	IC50 [13]	IC50 [12]	IC50 [9]
RYRFQKYKTLFVDVT [Peptide 90.0019]	407 nM	5630 nM	43 nM	590 nM	2170 nM	4510 nM	4110 nM	74 nM	728 nM	226 nM	623 nM	–	–	–	–
IIHLKGDPNSLKCLR [Peptide 90.0228]	877 nM	11 nM	2540 nM	–	163 nM	5830 nM	1900 nM	–	> 20000 nM	> 20000 nM	121 nM	1330 nM	–	–	–
LKLFLKGVPKKNCIL [Peptide 89.0054]	341 nM	9900 nM	–	3350 nM	3380 nM	1730 nM	619 nM	200 nM	–	2010 nM	2910 nM	–	–	–	–
DDRWPYLHSRLVVFT [Peptide 89.0058]	1700 nM	> 20000 nM	68 nM	284 nM	2190 nM	297 nM	297 nM	29 nM	–	158 nM	> 20000 nM	> 20000 nM	–	–	–
RLNVCQDKILTHYEN [Peptide 90.0160]	–	307 nM	7980 nM	3800 nM	96 nM	256 nM	0.61 nM	2.7 nM	372 nM	50 nM	3.5 nM	1640 nM	–	–	–
LKSFLKGTPKKNCLV [Peptide 89.0035]	208 nM	> 20000 nM	–	5190 nM	430 nM	3230 nM	4740 nM	30 nM	–	2690 nM	320 nM	–	–	–	–
ESDMAFEYALLADSN [Peptide 90.0055]	5730 nM	591 nM	–	428 nM	1850 nM	16300 nM	165 nM	57 nM	4680 nM	826 nM	24 nM	–	–	–	–
PHAFPFDKNGNPVYE [Peptide 90.0106]	> 20000 nM	930 nM	7120 nM	2790 nM	1390 nM	671 nM	–	517 nM	> 20000 nM	–	–	> 20000 nM	7.19 µM	–	–
DRGVLILLLIRFKCG [Peptide 89.0099]	4730 nM	470 nM	384 nM	–	–	711 nM	–	20 nM	1630 nM	–	1480 nM	83 nM	3.34 µM	–	–
KSLFGMSLMKFLQGS [Peptide 89.0020]	–	> 20000 nM	21 nM	2110 nM	4670 nM	944 nM	449 nM	–	535 nM	310 nM	573 nM	–	–	–	–
WKAVRHENVLYYKAR [Peptide 90.0230]	613 nM	76 nM	666 nM	–	264 nM	415 nM	189 nM	164 nM	–	–	718 nM	–	–	762 nM	2120 nM
